The conditions of series [1]: human gut metagenome, 24 h, 2 µM.
For series [2] the following is noted: human gut metagenome, 24 h, 2 µM. This is another data set of the same source.
A short description of series [3]: The drug is tested on WLS-077 corresponding to human gut metagenome with ENA study accession number: PRJEB37062 and ENA sample accession number: ERS12561750 for biotransformation under anaerobic condition. The drug concentrations were measured over 9 timepoints collected between 0 and 24 hours of incubation by liquid-chromatography-coupled mass spectrometry (LC–MS). The note with it: 2 µM.

The nature of series [4]: The drug is tested on WLS-240 corresponding to human gut metagenome with ENA study accession number: PRJEB37062 and ENA sample accession number: ERS12561773 for biotransformation under anaerobic condition. The drug concentrations were measured over 9 timepoints collected between 0 and 24 hours of incubation by liquid-chromatography-coupled mass spectrometry (LC–MS). The note with it: 2 µM.

Series [5] in a line: The drug is tested on Z-029 corresponding to rat gut metagenome with ENA study accession number: PRJEB37062 and ENA sample accession number: ERS12561828 for biotransformation under anaerobic condition. The drug concentrations were measured over 9 timepoints collected between 0 and 24 hours of incubation by liquid-chromatography-coupled mass spectrometry (LC–MS). The note with it: 2 µM.

The conditions of series [6]: human gut metagenome, 24 h, 2 µM. This is another data set of the same source.
The nature of series [7]: The drug is tested on WLS-098 corresponding to human gut metagenome with ENA study accession number: PRJEB37062 and ENA sample accession number: ERS12561754 for biotransformation under anaerobic condition. The drug concentrations were measured over 9 timepoints collected between 0 and 24 hours of incubation by liquid-chromatography-coupled mass spectrometry (LC–MS). The note with it: 2 µM.

A short description of series [8]: The drug is tested on WLS-170 corresponding to human gut metagenome with ENA study accession number: PRJEB37062 and ENA sample accession number: ERS12561762 for biotransformation under anaerobic condition. The drug concentrations were measured over 9 timepoints collected between 0 and 24 hours of incubation by liquid-chromatography-coupled mass spectrometry (LC–MS). The note with it: 2 µM.

Series [9] in a line: The drug is tested on Z-018 corresponding to pig gut metagenome with ENA study accession number: PRJEB37062 and ENA sample accession number: ERS12561817 for biotransformation under anaerobic condition. The drug concentrations were measured over 9 timepoints collected between 0 and 24 hours of incubation by liquid-chromatography-coupled mass spectrometry (LC–MS). The note with it: 2 µM.

The conditions of series [10]: human gut metagenome, 24 h, 2 µM. This is another data set of the same source.
Series [11] is described as follows: The drug is tested on Z-027 corresponding to metagenome with ENA study accession number: PRJEB37062 and ENA sample accession number: ERS12561826 for biotransformation under anaerobic condition. The drug concentrations were measured over 9 timepoints collected between 0 and 24 hours of incubation by liquid-chromatography-coupled mass spectrometry (LC–MS). The note with it: 2 µM.

The conditions of series [12]: human gut metagenome, 24 h, 2 µM. This is another data set of the same source.
Series [13] can be described thus: The drug is tested on Z-028 corresponding to mouse gut metagenome with ENA study accession number: PRJEB37062 and ENA sample accession number: ERS12561827 for biotransformation under anaerobic condition. The drug concentrations were measured over 9 timepoints collected between 0 and 24 hours of incubation by liquid-chromatography-coupled mass spectrometry (LC–MS). The note with it: 2 µM.

Series [14] in a line: The drug is tested on WLS-310 corresponding to human gut metagenome with ENA study accession number: PRJEB37062 and ENA sample accession number: ERS12561785 for biotransformation under anaerobic condition. The drug concentrations were measured over 9 timepoints collected between 0 and 24 hours of incubation by liquid-chromatography-coupled mass spectrometry (LC–MS). The note with it: 2 µM.

The conditions of series [15]: human gut metagenome, 24 h, 2 µM. The source holds these as a separate data set.
Series [16] can be described thus: The drug is tested on Z-007 corresponding to rat gut metagenome with ENA study accession number: PRJEB37062 and ENA sample accession number: ERS12561807 for biotransformation under anaerobic condition. The drug concentrations were measured over 9 timepoints collected between 0 and 24 hours of incubation by liquid-chromatography-coupled mass spectrometry (LC–MS). The note with it: 2 µM.

The conditions of series [17]: human gut metagenome, 24 h, 2 µM. The source holds these as a separate data set.
A short description of series [18]: The drug is tested on WLS-006 corresponding to human gut metagenome with ENA study accession number: PRJEB37062 and ENA sample accession number: ERS12561741 for biotransformation under anaerobic condition. The drug concentrations were measured over 9 timepoints collected between 0 and 24 hours of incubation by liquid-chromatography-coupled mass spectrometry (LC–MS). The note with it: 2 µM.

Series [19] is described as follows: The drug is tested on Z-026 corresponding to metagenome with ENA study accession number: PRJEB37062 and ENA sample accession number: ERS12561825 for biotransformation under anaerobic condition. The drug concentrations were measured over 9 timepoints collected between 0 and 24 hours of incubation by liquid-chromatography-coupled mass spectrometry (LC–MS). The note with it: 2 µM.

A short description of series [20]: The drug is tested on Z-003 corresponding to pig gut metagenome with ENA study accession number: PRJEB37062 and ENA sample accession number: ERS12561803 for biotransformation under anaerobic condition. The drug concentrations were measured over 9 timepoints collected between 0 and 24 hours of incubation by liquid-chromatography-coupled mass spectrometry (LC–MS). The note with it: 2 µM.

SMILES strings stand for the structures.
Further: call rule not given here.

`CCN1CCCC1CNC(=O)c1cc(S(N)(=O)=O)ccc1OC` (stereo not given) [SULPIRIDE]: the “Bacterial Biotransformation” value in [1] is “Compound NOT metabolized”; in [2], “Compound NOT metabolized”; in [3] it was “Compound metabolized”; in series [4], “Compound metabolized”; in series [5], “Compound NOT metabolized”; in [6] it was “Compound metabolized”. Further, the “Bacterial Biotransformation” value in series [7] is given as “Compound metabolized”; in series [8] it was “Compound metabolized”; in series [9], “Compound metabolized”; in series [10], “Compound NOT metabolized”; in series [11], “Compound NOT metabolized”; in [12], “Compound NOT metabolized”. Further, the “Bacterial Biotransformation” value in series [13] is “Compound NOT metabolized”; in [14], “Compound metabolized”; in series [15] it was “Compound NOT metabolized”; in series [16], “Compound NOT metabolized”; in series [17], “Compound metabolized”; in [18], “Compound metabolized”. For the same compound, the “Bacterial Biotransformation” value in series [19] is recorded as “Compound NOT metabolized”; in [20], “Compound metabolized”.

Consider `CNS(=O)(=O)Cc1ccc2[nH]cc(CCN(C)C)c2c1.O=C(O)CCC(=O)O` [SUMATRIPTAN SUCCINATE], for which the “Bacterial Biotransformation” value is “Compound NOT metabolized” in series [1]; “Compound NOT metabolized” in series [2]; “Compound NOT metabolized” in [3]; “Compound metabolized” in [4]; “Compound NOT metabolized” in [5]; “Compound metabolized” in [6]. Moreover, the “Bacterial Biotransformation” value in series [7] was “Compound metabolized”; in series [8], “Compound NOT metabolized”; in [9] it was “Compound NOT metabolized”; in [10], “Compound NOT metabolized”; in series [11], “Compound NOT metabolized”; in [12] it was “Compound NOT metabolized”. The “Bacterial Biotransformation” value in series [13] is reported as “Compound NOT metabolized”; in series [14], “Compound NOT metabolized”; in [15], “Compound NOT metabolized”; in series [16], “Compound NOT metabolized”; in series [17], “Compound metabolized”; in series [18] it was “Compound NOT metabolized”. For the same compound, the figures for the “Bacterial Biotransformation” value in series [19] and in series [20] were “Compound NOT metabolized” and “Compound metabolized”, respectively.

Turning to `Nc1c2c(nc3ccccc13)CCCC2` [TACRINE], the “Bacterial Biotransformation” value is listed as “Compound NOT metabolized” in series [1]; “Compound NOT metabolized” in series [2]; “Compound metabolized” in series [3]; “Compound metabolized” in [4]; “Compound NOT metabolized” in series [5]; “Compound metabolized” in [6]. Moreover, the “Bacterial Biotransformation” value in series [7] is recorded as “Compound metabolized”; in series [8], “Compound metabolized”; in [9], “Compound NOT metabolized”; in series [10], “Compound NOT metabolized”; in series [11], “Compound NOT metabolized”; in series [12] it was “Compound NOT metabolized”. For the same compound, the “Bacterial Biotransformation” value in series [13] was “Compound NOT metabolized”; in series [14] it was “Compound metabolized”; in [15], “Compound NOT metabolized”; in series [16], “Compound NOT metabolized”; in [17] it was “Compound metabolized”; in series [18] it was “Compound NOT metabolized”. The “Bacterial Biotransformation” value in series [19] and in series [20] was “Compound NOT metabolized” in each case.

Take `Cc1ccc(S(=O)(=O)NC(=O)NN2CCCCCC2)cc1` [TOLAZAMIDE]: the “Bacterial Biotransformation” value in series [1] is reported as “Compound NOT metabolized”; in series [2], “Compound NOT metabolized”; in [3], “Compound metabolized”; in series [4], “Compound metabolized”; in [5] it was “Compound NOT metabolized”; in [6], “Compound metabolized”. The “Bacterial Biotransformation” value in [7] was “Compound metabolized”; in [8], “Compound metabolized”; in series [9] it was “Compound metabolized”; in [10], “Compound metabolized”; in series [11], “Compound NOT metabolized”; in series [12] it was “Compound NOT metabolized”. The “Bacterial Biotransformation” value in series [13] is “Compound metabolized”; in series [14] it was “Compound metabolized”; in [15] it was “Compound metabolized”; in series [16], “Compound NOT metabolized”; in [17], “Compound metabolized”; in [18], “Compound metabolized”. Moreover, the figures for the “Bacterial Biotransformation” value in series [19] and in [20] were “Compound NOT metabolized” and “Compound metabolized”, respectively.

Regarding `CCOC(=O)[C@H](CCc1ccccc1)N[C@@H](C)C(=O)N1[C@H](C(=O)O)C[C@H]2CCCC[C@@H]21` [TRANDOLAPRIL], the “Bacterial Biotransformation” value in [1] is listed as “Compound NOT metabolized”; in series [2], “Compound metabolized”; in series [3], “Compound metabolized”; in series [4] it was “Compound metabolized”; in series [5], “Compound NOT metabolized”; in series [6], “Compound metabolized”. The “Bacterial Biotransformation” value in [7] is recorded as “Compound metabolized”; in [8] it was “Compound metabolized”; in series [9], “Compound metabolized”; in series [10] it was “Compound metabolized”; in series [11] it was “Compound NOT metabolized”; in series [12] it was “Compound NOT metabolized”. Moreover, the “Bacterial Biotransformation” value in series [13] is listed as “Compound NOT metabolized”; in [14] it was “Compound metabolized”; in series [15], “Compound metabolized”; in [16], “Compound NOT metabolized”; in [17], “Compound metabolized”; in series [18] it was “Compound metabolized”. Moreover, the “Bacterial Biotransformation” value is reported as “Compound NOT metabolized” in series [19] and “Compound metabolized” in series [20].
